# From PMC2843921 (ACS chemical neuroscience, 2010)
# Structures can show the parent of a compound that is named as a salt. Non-standard residues stand in square brackets, D forms with d. Residues, ends and D or L forms follow the SMILES beside them. *: point of attachment. Dmt = Cc1cc(O)cc(C)c1C[C@H](N)C(=O)O; dTic = O=C(O)[C@H]1Cc2ccccc2CN1; NHBn = c1ccc(CN*)cc1
# Target: T1, human μ opioid receptor (Homo sapiens, UniProt P35372)
# Assay: Inhibition of DAMGO-stimulated [35S]GTPγS binding, μ
# Assay type: biochemical
# Settings: in presence of 200 nM DAMGO; NI = No inhibition
# T1 sequence (P35372 whole entry): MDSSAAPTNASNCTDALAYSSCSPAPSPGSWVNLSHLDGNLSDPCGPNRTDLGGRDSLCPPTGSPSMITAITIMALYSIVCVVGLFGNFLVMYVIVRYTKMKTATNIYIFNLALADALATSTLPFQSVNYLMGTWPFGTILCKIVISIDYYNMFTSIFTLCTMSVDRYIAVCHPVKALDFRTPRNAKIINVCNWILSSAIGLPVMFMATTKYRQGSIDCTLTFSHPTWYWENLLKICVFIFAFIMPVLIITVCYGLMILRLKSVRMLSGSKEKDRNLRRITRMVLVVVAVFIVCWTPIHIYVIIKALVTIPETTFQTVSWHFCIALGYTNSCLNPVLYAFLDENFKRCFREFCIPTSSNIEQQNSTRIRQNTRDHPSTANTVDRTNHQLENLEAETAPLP
row,Molecule,Antagonism μ Imax (%)
1,"Cc1cc(O)cc(C)c1C[C@H](N)C(=O)N1Cc2ccccc2C[C@H]1C(=O)NCC(=O)NCc1ccc(Cl)cc1 [Compound 3, TFA·H-Dmt-Tic-Gly-NH-Bzl(pCl)]",43±3.3%
2,"Cc1cc(O)cc(C)c1C[C@H](N)C(=O)N1Cc2ccccc2C[C@H]1C(=O)NCC(=O)NCc1ccc([N+](=O)[O-])cc1 [Compound 5, TFA·H-Dmt-Tic-Gly-NH-Bzl(pNO2)]",74±6.9%

# Same assay, conditions: read-out: Antagonism μ inhibition of DAMGO-stimulated [35S]GTPγS binding (%)
row,Molecule,inhibition at 25 µM
1,"Cc1ccc(CNC(=O)CNC(=O)[C@@H]2Cc3ccccc3CN2C(=O)[C@@H](N)Cc2c(C)cc(O)cc2C)cc1 [Compound 4, TFA·H-Dmt-Tic-Gly-NH-Bzl(pMe)]",65 ± 1.1%

# Target: T1, human μ opioid receptor
# Assay: Stimulation of [35S]GTPγS binding, μ
# Assay type: biochemical
# Settings: not given
row,Molecule,EC50
1,"Cc1cc(O)cc(C)c1C[C@H](N)C(=O)N1Cc2ccccc2C[C@@H]1C(=O)NCC(=O)NCc1ccccc1 [Compound 2, TFA·H-Dmt-D-Tic-Gly-NH-Bzl] (H-[Dmt]-[dTic]-Gly-NHBn)",0.9 ± 0.032 nM
2,"Cc1cc(O)cc(C)c1C[C@H](N)C(=O)N1Cc2ccccc2C[C@H]1C(=O)NCC(=O)NCc1ccc(Cl)cc1 [Compound 3, TFA·H-Dmt-Tic-Gly-NH-Bzl(pCl)]",33 ± 2.9 nM
3,"Cc1ccc(CNC(=O)CNC(=O)[C@@H]2Cc3ccccc3CN2C(=O)[C@@H](N)Cc2c(C)cc(O)cc2C)cc1 [Compound 4, TFA·H-Dmt-Tic-Gly-NH-Bzl(pMe)]",63 ± 3.5 nM
4,"Cc1cc(O)cc(C)c1C[C@H](N)C(=O)N1Cc2ccccc2C[C@H]1C(=O)NCC(=O)NCc1ccc([N+](=O)[O-])cc1 [Compound 5, TFA·H-Dmt-Tic-Gly-NH-Bzl(pNO2)]",61 ± 15 nM
5,"Cc1cc(O)cc(C)c1C[C@H](N)C(=O)N1Cc2ccccc2C[C@H]1C(=O)NCC(=O)NC(c1ccccc1)c1ccccc1 [Compound 7, TFA·H-Dmt-Tic-Gly-NH-Benzhydryl]",4.8 ± 0.16 nM

# Same assay, conditions: read-out: Agonism μ Emax (%)
row,Molecule,Emax
1,"Cc1cc(O)cc(C)c1C[C@H](N)C(=O)N1Cc2ccccc2C[C@@H]1C(=O)NCC(=O)NCc1ccccc1 [Compound 2, TFA·H-Dmt-D-Tic-Gly-NH-Bzl] (H-[Dmt]-[dTic]-Gly-NHBn)",92 ± 4%
2,"Cc1cc(O)cc(C)c1C[C@H](N)C(=O)N1Cc2ccccc2C[C@H]1C(=O)NCC(=O)NCc1ccc(Cl)cc1 [Compound 3, TFA·H-Dmt-Tic-Gly-NH-Bzl(pCl)]",52 ± 5.5%
3,"Cc1ccc(CNC(=O)CNC(=O)[C@@H]2Cc3ccccc3CN2C(=O)[C@@H](N)Cc2c(C)cc(O)cc2C)cc1 [Compound 4, TFA·H-Dmt-Tic-Gly-NH-Bzl(pMe)]",34 ± 6.4%
4,"Cc1cc(O)cc(C)c1C[C@H](N)C(=O)N1Cc2ccccc2C[C@H]1C(=O)NCC(=O)NCc1ccc([N+](=O)[O-])cc1 [Compound 5, TFA·H-Dmt-Tic-Gly-NH-Bzl(pNO2)]",16 ± 2.5%
5,"Cc1cc(O)cc(C)c1C[C@H](N)C(=O)N1Cc2ccccc2C[C@H]1C(=O)NCC(=O)NC(c1ccccc1)c1ccccc1 [Compound 7, TFA·H-Dmt-Tic-Gly-NH-Benzhydryl]",45 ± 1.2%
6,"Cc1cc(O)cc(C)c1C[C@H](N)C(=O)N1Cc2ccccc2C[C@H]1C(=O)NCC(=O)N1CCc2ccccc2C1 [Compound 8, TFA·H-Dmt-Tic-Gly-1,2,3,4-tetrahydroisoquinoline]",43 ± 6.6%

# Test system: GPI
# Assay: not given
# Settings: read-out: GPI EC50; cited from earlier work
row,Molecule,EC50
1,H-Dmt-Tic-Gly-Ph,2.57 nM

# Target: T2, human δ opioid receptor (Homo sapiens, UniProt P41143)
# Assay: Inhibition of SNC 80-stimulated [35S]GTPγS binding, δ
# Assay type: biochemical
# Settings: in presence of 10 nM SNC 80; NI = No inhibition
# T2 sequence (P41143 whole entry): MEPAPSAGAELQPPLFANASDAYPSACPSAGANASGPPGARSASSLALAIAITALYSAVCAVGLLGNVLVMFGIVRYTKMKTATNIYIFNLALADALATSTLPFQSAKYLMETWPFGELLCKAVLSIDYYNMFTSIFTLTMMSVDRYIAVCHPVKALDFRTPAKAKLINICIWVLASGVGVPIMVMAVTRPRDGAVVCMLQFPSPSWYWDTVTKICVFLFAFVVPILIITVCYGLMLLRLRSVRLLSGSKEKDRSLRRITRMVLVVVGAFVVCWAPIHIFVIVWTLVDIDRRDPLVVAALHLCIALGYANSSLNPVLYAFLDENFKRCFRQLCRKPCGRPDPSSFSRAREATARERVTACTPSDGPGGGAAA
row,Molecule,Antagonism δ Imax (%)
1,"Cc1cc(O)cc(C)c1C[C@H](N)C(=O)N1Cc2ccccc2C[C@H]1C(=O)NCC(=O)NCc1ccc(Cl)cc1 [Compound 3, TFA·H-Dmt-Tic-Gly-NH-Bzl(pCl)]",93±2.2%
2,"Cc1ccc(CNC(=O)CNC(=O)[C@@H]2Cc3ccccc3CN2C(=O)[C@@H](N)Cc2c(C)cc(O)cc2C)cc1 [Compound 4, TFA·H-Dmt-Tic-Gly-NH-Bzl(pMe)]",86±5.0%
3,"Cc1cc(O)cc(C)c1C[C@H](N)C(=O)N1Cc2ccccc2C[C@H]1C(=O)NCC(=O)NCc1ccc([N+](=O)[O-])cc1 [Compound 5, TFA·H-Dmt-Tic-Gly-NH-Bzl(pNO2)]",79±3.8%
4,"Cc1cc(O)cc(C)c1C[C@H](N)C(=O)N1Cc2ccccc2C[C@H]1C(=O)NCC(=O)NCc1ccc(N)cc1 [Compound 6, 2TFA·H-Dmt-Tic-Gly-NH-Bzl(pNH2)]",78±2.7%
5,"Cc1cc(O)cc(C)c1C[C@H](N)C(=O)N1Cc2ccccc2C[C@H]1C(=O)NCC(=O)NC(c1ccccc1)c1ccccc1 [Compound 7, TFA·H-Dmt-Tic-Gly-NH-Benzhydryl]",100±7.4%
6,"Cc1cc(O)cc(C)c1C[C@H](N)C(=O)N1Cc2ccccc2C[C@H]1C(=O)NCC(=O)N1CCc2ccccc2C1 [Compound 8, TFA·H-Dmt-Tic-Gly-1,2,3,4-tetrahydroisoquinoline]",99±3.3%

# Target: T2, human δ opioid receptor
# Assay: Stimulation of [35S]GTPγS binding, δ
# Assay type: biochemical
# Settings: not given
row,Molecule,EC50
1,"Cc1cc(O)cc(C)c1C[C@H](N)C(=O)N1Cc2ccccc2C[C@@H]1C(=O)NCC(=O)NCc1ccccc1 [Compound 2, TFA·H-Dmt-D-Tic-Gly-NH-Bzl] (H-[Dmt]-[dTic]-Gly-NHBn)",2.8 ± 0.6 nM

# Same assay, conditions: read-out: Agonism δ Emax (%)
row,Molecule,Emax
1,"Cc1cc(O)cc(C)c1C[C@H](N)C(=O)N1Cc2ccccc2C[C@@H]1C(=O)NCC(=O)NCc1ccccc1 [Compound 2, TFA·H-Dmt-D-Tic-Gly-NH-Bzl] (H-[Dmt]-[dTic]-Gly-NHBn)",44 ± 6.1%
2,"Cc1cc(O)cc(C)c1C[C@H](N)C(=O)N1Cc2ccccc2C[C@H]1C(=O)NCC(=O)NCc1ccc(Cl)cc1 [Compound 3, TFA·H-Dmt-Tic-Gly-NH-Bzl(pCl)]",4.5 ± 0.85%
3,"Cc1ccc(CNC(=O)CNC(=O)[C@@H]2Cc3ccccc3CN2C(=O)[C@@H](N)Cc2c(C)cc(O)cc2C)cc1 [Compound 4, TFA·H-Dmt-Tic-Gly-NH-Bzl(pMe)]",0.4 ± 1.43%
4,"Cc1cc(O)cc(C)c1C[C@H](N)C(=O)N1Cc2ccccc2C[C@H]1C(=O)NCC(=O)NCc1ccc([N+](=O)[O-])cc1 [Compound 5, TFA·H-Dmt-Tic-Gly-NH-Bzl(pNO2)]",3.1 ± 0.43%
5,"Cc1cc(O)cc(C)c1C[C@H](N)C(=O)N1Cc2ccccc2C[C@H]1C(=O)NCC(=O)NCc1ccc(N)cc1 [Compound 6, 2TFA·H-Dmt-Tic-Gly-NH-Bzl(pNH2)]",13 ± 1%
6,"Cc1cc(O)cc(C)c1C[C@H](N)C(=O)N1Cc2ccccc2C[C@H]1C(=O)NCC(=O)NC(c1ccccc1)c1ccccc1 [Compound 7, TFA·H-Dmt-Tic-Gly-NH-Benzhydryl]",-1.9 ± 0.17%
7,"Cc1cc(O)cc(C)c1C[C@H](N)C(=O)N1Cc2ccccc2C[C@H]1C(=O)NCC(=O)N1CCc2ccccc2C1 [Compound 8, TFA·H-Dmt-Tic-Gly-1,2,3,4-tetrahydroisoquinoline]",-1.4 ± 0.14%

# Test system: MVD
# Assay: not given
# Settings: read-out: MVD EC50; cited from earlier work
row,Molecule,EC50
1,H-Dmt-Tic-Gly-Ph,3.02 nM
